What all share (conditions): 48 h
In experiment [1] the test system is CU-ACC1. The experiment is described as follows: AC50 viability; higher = less potent. Summed up: (§1)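 In 1,536-well plates, 500–1,000 cells/well of three adrenocortical carcinoma cell lines in 5 µL medium received 23 nL of each library compound across 11 concentrations. At 48 h, CellTiter-Glo was incubated for 15 minutes at room temperature and luminescence measured. Per-plate normalisation used vehicle and empty-well controls, and only inhibitory or non-responding curve classes were kept when fitting concentration-response curves for AC50 and area under the curve.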

For experiment [2], the system named is NCI-H295R. The experiment is described as follows: AC50 viability; higher = less potent. In outline:
as §1

For experiment [3], the system named is CU-ACC1. The experiment is described as follows: area under concentration-response curve (viability) (AUC (a.u.)); higher = less active. In outline: as §1
The subject of experiment [4] is NCI-H295R. The experiment is described as above. In outline:
as §1

The test system of experiment [5] is CU-ACC2. The description is as above. In outline: as §1
Experiment [6] concerns CU-ACC2. The experiment is described as follows: AC50 viability; higher = less potent. In outline:
as §1

The values below come from the supplement of paper PMC10949913.

As for `CC(C)(C)c1[nH]cnc1/C=c1\[nH]c(=O)/c(=C/c2ccccc2)[nH]c1=O`, the figures for the AC50 viability in the experiment on CU-ACC1 [1] and with NCI-H295R [2] were 18600 nM and 37.2 nM, respectively. Further, the “area under concentration-response curve” value with CU-ACC1 [3] came to 490; in the experiment with NCI-H295R [4], 434; in the experiment on CU-ACC2 [5] it was 398.

As for `CC1=C(C)C\2=C(S1)[N]3C(=NN=C3[C@H](CC(=O)NC4=CC=C(OCCOCCOCCOCCNC5=CC=CC6=C5C(=O)N(C7CCC(=O)NC7=O)C6=O)C=C4)\N=C2C8=CC=C(Cl)C=C8)C` (some centres undefined), the AC50 viability in the experiment with CU-ACC1 [1] was 417 nM; in the experiment on NCI-H295R [2], 1860 nM. Also, the “area under concentration-response curve” value in the experiment on CU-ACC1 [3] was found to be 443; with NCI-H295R [4], 457; in the experiment on CU-ACC2 [5], 484.

For `CC(=O)Nc1cc(Oc2ccc3c(nc(Nc4ccc(F)cc4F)n3C)c2C)ccn1`, the AC50 viability in the experiment on CU-ACC1 [1] was 18600 nM; in the experiment with NCI-H295R [2] it was 11800 nM. The “area under concentration-response curve” value with CU-ACC1 [3] was determined as 484; with NCI-H295R [4], 482; in the experiment with CU-ACC2 [5], 544.

For `FC(F)c1nc2ccccc2n1-c1nc(N2CCOCC2)nc(N2CCOCC2)n1`, the AC50 viability with CU-ACC1 [1] worked out at 590 nM; in the experiment with NCI-H295R [2] it was 934 nM. Moreover, the “area under concentration-response curve” value came out at 413 in the experiment with CU-ACC1 [3], 399 in the experiment on NCI-H295R [4] and 487 in the experiment with CU-ACC2 [5].

Turning to `CC(C)(O)C[S+](=O)([O-])Nc1ccc2c(c1)CCN(C(=O)COc1cccnc1)C2`, the AC50 viability turned out to be 295 nM with CU-ACC1 [1] and 1050 nM with NCI-H295R [2]. The “area under concentration-response curve” value in the experiment with CU-ACC1 [3] was 334; in the experiment on NCI-H295R [4], 483; in the experiment with CU-ACC2 [5] it was 390.

Turning to `O=C(/C=C\n1cnc(-c2cc(C(F)(F)F)cc(C(F)(F)F)c2)n1)N1CC(F)(F)C1`, the AC50 viability with CU-ACC1 [1] is 1320 nM; with NCI-H295R [2] it was 590 nM. In addition, the entries for the “area under concentration-response curve” value in the experiment with CU-ACC1 [3], in the experiment with NCI-H295R [4] and with CU-ACC2 [5] were 448, 456 and 467, respectively.

In the case of `C[C@@H]1O[C@@H](O[C@@H]2C=C3CC[C@@H]4[C@H](CC[C@]5(C)[C@@H](c6ccc(=O)oc6)CC[C@]45O)[C@@]3(C)CC2)[C@H](O)[C@H](O)[C@H]1O`, the AC50 viability stood at 14.8 nM in the experiment on CU-ACC1 [1] and 33.2 nM in the experiment on NCI-H295R [2]. The figures for the “area under concentration-response curve” value in the experiment with CU-ACC1 [3], in the experiment on NCI-H295R [4] and in the experiment with CU-ACC2 [5] were 219, 277 and 307, respectively.

With `Cc1ccc([S+](=O)([O-])Cc2nc(-c3ccc(C(=O)NCc4cccnc4)cc3)oc2C)cc1`, the values for the AC50 viability in the experiment with CU-ACC1 [1] and in the experiment with NCI-H295R [2] were 74.2 nM and 263 nM, respectively. The “area under concentration-response curve” value was found to be 290 in the experiment with CU-ACC1 [3], 379 in the experiment on NCI-H295R [4] and 402 in the experiment on CU-ACC2 [5].

For the compound `ONC(=O)C1=CC=C(C=C1)C/2=N/C3=CC=CC=C3OC4=C2C=CC=C4`, the AC50 viability in the experiment with CU-ACC1 [1] and in the experiment with NCI-H295R [2] was 16600 nM throughout. In addition, the “area under concentration-response curve” value worked out at 362 with CU-ACC1 [3], 557 with NCI-H295R [4] and 507 with CU-ACC2 [5].

As for `CC/1=C/C(=O)N(O)/C(=C1)C2CCCCC2`, the results for the AC50 viability with CU-ACC1 [1] and in the experiment with NCI-H295R [2] were 10500 nM and 7420 nM, respectively. For the same compound, the “area under concentration-response curve” value with CU-ACC1 [3] came to 505; in the experiment on NCI-H295R [4] it was 528; in the experiment on CU-ACC2 [5] it was 570.

Consider `CCNC1(C(N)=O)CCN(c2ncnc3c2nc(-c2ccccc2Cl)n3-c2ccc(Cl)cc2)CC1`, for which the AC50 viability in the experiment with CU-ACC2 [6] was determined as 295 nM. Also, the “area under concentration-response curve” value in the experiment with CU-ACC2 [5] turned out to be 330.

Regarding `COC1(c2sc3c(N4CCOCC4)nc(-c4cnc(N)nc4)nc3c2C)COC1`, the results for the AC50 viability with CU-ACC1 [1] and in the experiment on NCI-H295R [2] were 525 nM and 372 nM, respectively. Further, the “area under concentration-response curve” value with CU-ACC1 [3] was 287; in the experiment on NCI-H295R [4], 322; with CU-ACC2 [5], 374.

On to `C[S+](=O)([O-])N1CCc2c(-c3cnc(N)nc3)nc(N3CCOCC3)nc21`, for which the AC50 viability with CU-ACC1 [1] worked out at 1180 nM; in the experiment with NCI-H295R [2] it was 417 nM. In addition, the “area under concentration-response curve” value in the experiment with CU-ACC1 [3] turned out to be 403; with NCI-H295R [4] it was 389; in the experiment with CU-ACC2 [5], 345.

On to `Cc1ccc(C(C)(O)c2nc3ccccc3s2)c(C)c1` (centres undefined), for which the AC50 viability in the experiment on CU-ACC1 [1] stood at 8330 nM; in the experiment on NCI-H295R [2], 16600 nM. The “area under concentration-response curve” value in the experiment with CU-ACC1 [3] was 421; with NCI-H295R [4] it was 464; in the experiment on CU-ACC2 [5], 511.

As to `O=C(NCCCNC(=O)c1cccnc1O)c1cc(-c2ccccc2)on1`, the AC50 viability is 20900 nM with CU-ACC1 [1] and 18600 nM with NCI-H295R [2]. Moreover, the results for the “area under concentration-response curve” value with CU-ACC1 [3], in the experiment with NCI-H295R [4] and in the experiment on CU-ACC2 [5] were 481, 443 and 574, respectively.

On to `COc1cc(OC2CCN(C)CC2)ccc1Nc1ncc2c(n1)n(C1CCCC1)c(=O)n2C`, for which the figures for the AC50 viability in the experiment on CU-ACC1 [1] and with NCI-H295R [2] were 26300 nM and 23500 nM, respectively. In addition, the results for the “area under concentration-response curve” value with CU-ACC1 [3], in the experiment with NCI-H295R [4] and with CU-ACC2 [5] were 447, 528 and 619, respectively.

`Cc1cnc(Nc2ccc(N3CCN(C)CC3)cc2)nc1Nc1cccc([S+](=O)([O-])NC(C)(C)C)c1`: the AC50 viability in the experiment with CU-ACC1 [1] was determined as 14800 nM; in the experiment with NCI-H295R [2], 9340 nM. The “area under concentration-response curve” value worked out at 466 with CU-ACC1 [3], 421 with NCI-H295R [4] and 529 with CU-ACC2 [5].

As to `Cn1cc(/C=C/C(=O)c2cccc(F)c2)cc1/C=C/C(=O)NO`, the AC50 viability in the experiment with CU-ACC1 [1] stood at 5900 nM; in the experiment with NCI-H295R [2], 8330 nM. For the same compound, the “area under concentration-response curve” value in the experiment on CU-ACC1 [3] came out at 428; in the experiment with NCI-H295R [4], 439; with CU-ACC2 [5] it was 513.

Consider `CC1(C)OCCn2c1nc1c(N3CCOCC3)nc(-c3cnc(N)nc3)nc12`, for which the AC50 viability in the experiment on CU-ACC1 [1] came to 1180 nM; in the experiment with NCI-H295R [2], 1860 nM. Moreover, the entries for the “area under concentration-response curve” value in the experiment on CU-ACC1 [3], in the experiment with NCI-H295R [4] and in the experiment on CU-ACC2 [5] were 395, 430 and 500, respectively.

In turn, `C[S+](=O)([O-])c1cccc(CNc2nc(Nc3ccc4c(c3)CCC(=O)N4)ncc2C(F)(F)F)c1` yielded an AC50 viability with CU-ACC2 [6] of 23500 nM. The “area under concentration-response curve” value in the experiment on CU-ACC2 [5] stood at 467.
